In patent US20090043123A1, “Dilute Stabilized Peracetic Acid Production and Treatment Process” (priority 2007, published 2009):

Assays:
[1] = cited from earlier work
microorganisms = conditions: as low as 1 or 2 ppm peracetic acid; cited from earlier work
[2] = Stability/decomposition of peracetic acid formed in buffered aqueous medium (Example 1, FIG. 4); format: physicochemical; conditions: 25° C.
Description: The mole ratio of hydrogen peroxide to acetic anhydride used in this Example 1 was 5.7 moles H2O2 per mole of acetic anhydride, a mole ratio that provided a large stoichiometric excess of hydrogen peroxide. Three pH values were used: 10.0, 6.8 and 4.5. The aqueous medium in each study was appropriately buffered to maintain the specific pH value throughout the duration of the run.
In each of the three runs, the operating procedure was as follows. A dilute aqueous buffered hydrogen peroxide solution, containing 585 ppm H2O2, was prepared and maintained at a temperature of 25° C. No hydrogen peroxide stabilizers were added to the solution. Acetic anhydride, undiluted (i.e., 100%) and in an amount sufficient to provide the desired 5.7:1 mole ratio of H2O2:acetic anhydride, was added to the buffered hydrogen peroxide solution. Measurements of peracetic acid and hydrogen peroxide concentrations were obtained from samples taken periodically over a period of 180 minutes. Results of these three studies, as peracetic acid concentration vs. time, are plotted in the graph shown as FIG. 4.

[3] = aqueous solution; cited from earlier work

Compound: CC(=O)OC(C)=O [Acetic anhydride]
- solubility in water [1]: less than 3 wt %

Compound: Peracetic acid
- activity at very low concentrations (microorganisms): very active
- peracetic stability ([2]; pH 6.8, buffered aqueous medium, 5.7:1 H2O2:acetic anhydride, followed over 180 minutes): relatively good
- decomposition of the peracetic acid formed ([2]; pH 10.0, buffered aqueous medium, after peracetic acid formation was complete): high
- acid dissociation constant (pKa) [3]: 8.2
